Measurements taken from patent publication US11504434B2, “Compositions and methods for targeted delivery of therapeutic and/or diagnostic agents” (THE PENN STATE RESEARCH FOUNDATION, priority 2016, dated 2022).

Legend:
WM35 cells = assay: CCK-8 cell viability, WM35; format: cell-based, human
Description: (§1) Pharmacological Studies. First, free PLX4032 toxicity and selectivity were confirmed by adding PLX4032 solutions at different concentrations into 96 well plates with THP-1, 1205Lu and WM35 cells separately (cell seeding density=5,000 cells/well). After 24 hrs incubation, the cells were washed with PBS twice and supplemented with 10 μl CCK-8 in 100 μl RPM-1640 medium in each well. After 2 hrs incubation, the absorbance at 450 nm of each well was measured by a micro-plate reader (TECAN infinite M200 PRO) and converted to the cell viability by normalized to control (tissue culture plates). Next, MTP-BPLP-PLA nanoparticles with and without PLX4032 loaded were dispersed in RPMI-1640 medium in various concentrations, followed by incubation with THP-1, 1205lu and WM35 cells (2,000 cells/well) separately in same conditions for 7 days. At last, MTP-BPLP-PLA-PLX4032 loaded THP-1 cells and pristine THP-1 cells were seeded with 1205lu or WM35 cells (2,000 cells/well) together with different ratios for 7 days, respectively. The cell viabilities were tested by CCK-8 assays as well.

1205Lu cells = assay: CCK-8 cell viability, 1205Lu; format: cell-based, human
Description: as §1

THP-1 cells = assay: CCK-8 cell viability, THP-1; format: cell-based; conditions: free drug, up to 100 μg/ml, 24 hrs
Description: as §1

[1] = PLX4032 concentration higher than 5 μg/ml, 24 hrs

`CCCS(=O)(=O)Nc1ccc(F)c(C(=O)c2c[nH]c3ncc(-c4ccc(Cl)cc4)cc23)c1F` [PLX4032] was tested, and the “free PLX4032 toxicity to WM35” value (WM35 cells; 50 ng/ml, 24 hrs incubation) was “selectively killed”, the “kill of melanomas (WM35)” value (WM35 cells; [1]) was ~100% and the “free PLX4032 toxicity to 1205Lu” value (1205Lu cells; 50 ng/ml, 24 hrs incubation) was “selectively killed”. For the same molecule, the “kill of melanomas (1205Lu)” value (1205Lu cells; [1]) was ~100% and the “THP-1 cell viability reduction” value (THP-1 cells) was “no significant viability reduction”.
